Publication PMC9500072, “Topical application of an irreversible small molecule inhibitor of lysyl oxidases ameliorates skin scarring and fibrosis” (Nature Communications, 2022)
Values joined by “and” are separate entries in the source; they are usually repeats but may differ in a detail not shown here. Identical values can stand only once.

Experiments:
Neuropeptide Y Y1 = Neuropeptide Y Y1 (Homo sapiens, UniProt P25929); assay: Eurofins panel 257010; format: binding
Purinergic P2X = assay: Eurofins panel 268700; format: binding, rabbit; settings: 10 µM
Sigma σ1 = Sigma σ1 (Homo sapiens, UniProt Q99720); assay: Eurofins panel 278110; format: binding
Chain of Sigma σ1 (Q99720 whole entry): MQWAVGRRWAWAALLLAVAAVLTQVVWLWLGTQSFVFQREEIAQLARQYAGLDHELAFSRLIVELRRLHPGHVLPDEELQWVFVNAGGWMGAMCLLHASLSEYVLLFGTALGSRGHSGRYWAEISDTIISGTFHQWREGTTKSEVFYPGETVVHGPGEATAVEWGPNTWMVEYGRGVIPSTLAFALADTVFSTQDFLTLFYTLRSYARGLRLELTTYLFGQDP

[1] = molecular target: Leukotriene, Cysteinyl CysLT1 (Homo sapiens, UniProt Q9Y271); assay: Eurofins panel 250460; format: binding
Chain of Leukotriene, Cysteinyl CysLT1 (Q9Y271 whole entry): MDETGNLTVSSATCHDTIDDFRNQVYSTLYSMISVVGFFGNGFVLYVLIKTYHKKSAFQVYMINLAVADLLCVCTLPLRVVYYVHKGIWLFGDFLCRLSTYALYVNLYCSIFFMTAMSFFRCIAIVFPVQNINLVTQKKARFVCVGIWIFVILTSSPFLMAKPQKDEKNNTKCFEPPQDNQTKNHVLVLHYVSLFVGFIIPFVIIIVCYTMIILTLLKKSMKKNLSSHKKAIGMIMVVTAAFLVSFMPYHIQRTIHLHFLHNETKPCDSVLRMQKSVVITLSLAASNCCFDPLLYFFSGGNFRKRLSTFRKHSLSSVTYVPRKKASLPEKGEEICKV

[2] = test system: primary human dermal fibroblasts; assay: qPCR COL1A1 and LOX gene expression; format: cell-based; set-up: key to qPCR COLIAI / qPCRLOX: relative expression by 2^−ΔΔCt, GAPDH/PGK1 housekeeping
Experimental: Changes in COL1A1 and LOX gene expression in PXS-4787 treated cells were done using primary human dermal fibroblasts (50,000) seeded in a 6-well plate under Scar-in-a-jar media. The cells were incubated with 0 µM, 1 µM, and 10 µM PXS-4787 treatment for 48 h. mRNA was extracted using RNeasy mini kit® according to the manufacturer’s protocol (Qiagen Gmbh). The total concentration and purity of RNA were determined using a NAnodrop 2000C (Thermo Scientific, USA). For reverse transcription, mRNA was converted to cDNA using QuantiTect Reverse Transcription kit (Qiagen; Catalog no. 205311) according to the manufacturer’s protocol. Quantitative real-time RT-PCR was conducted using SYBR Green Master Mix (Qiagen; Catalog no. 204143) and Rotor gene Q thermocycler (Qiagen). The reactions were carried out in triplicate in 20 µl total volume containing 1 µl cDNA and 2 µl primers. The QuantiTect Primer assay for COL1A1 (Catalog no. QT00037793), LOX (Catalog no. QT00017311) were used. GAPDH (Catalog no. QT00079247) and PGK1 (Catalog no. 249900) were used as a housekeeping gene. The data were analyzed using Rotor geneQ software and the relative gene expression was calculated using the 2−^(∆∆c (t)) method. Three biological samples were used for each condition.

Purinergic P2Y = assay: Eurofins panel 268810; format: binding, rat; settings: 10 µM
[3] = Stability in cream formulations; format: physicochemical
[4] = test system: primary dermal fibroblasts; assay: Procollagen I FRET measurement, scar-in-a-jar; format: cell-based, human; settings: highest dose (10 µM)
Rolipram = assay: Eurofins panel 270000; format: binding, rat; settings: 10 µM
Monoamine Oxidase MAO-A = Monoamine Oxidase MAO-A (Homo sapiens, UniProt P21397); assay: Eurofins panel 140010; format: biochemical
Chain of Monoamine Oxidase MAO-A (P21397 whole entry): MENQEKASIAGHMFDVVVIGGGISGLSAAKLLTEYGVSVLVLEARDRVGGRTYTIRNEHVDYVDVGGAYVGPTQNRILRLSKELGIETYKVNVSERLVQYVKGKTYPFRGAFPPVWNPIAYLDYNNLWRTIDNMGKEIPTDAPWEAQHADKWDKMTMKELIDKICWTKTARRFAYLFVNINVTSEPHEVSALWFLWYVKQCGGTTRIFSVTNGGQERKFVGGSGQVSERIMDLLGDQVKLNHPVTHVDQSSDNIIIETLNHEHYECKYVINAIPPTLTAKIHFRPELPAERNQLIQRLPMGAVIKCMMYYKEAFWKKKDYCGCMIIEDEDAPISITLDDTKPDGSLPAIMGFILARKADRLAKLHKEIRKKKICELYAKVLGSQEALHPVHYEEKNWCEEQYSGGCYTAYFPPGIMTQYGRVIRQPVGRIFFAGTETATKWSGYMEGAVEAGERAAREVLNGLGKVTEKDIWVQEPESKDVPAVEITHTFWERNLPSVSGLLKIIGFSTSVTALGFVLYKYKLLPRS

Potassium Channel [KA] = assay: Eurofins panel 265510; format: binding, rat; settings: 30 µM
[5] = molecular target: Cholinesterase, Acetyl, ACES (Homo sapiens, UniProt P22303); assay: Eurofins panel 104010; format: biochemical
Chain of Cholinesterase, Acetyl, ACES (P22303 32-614): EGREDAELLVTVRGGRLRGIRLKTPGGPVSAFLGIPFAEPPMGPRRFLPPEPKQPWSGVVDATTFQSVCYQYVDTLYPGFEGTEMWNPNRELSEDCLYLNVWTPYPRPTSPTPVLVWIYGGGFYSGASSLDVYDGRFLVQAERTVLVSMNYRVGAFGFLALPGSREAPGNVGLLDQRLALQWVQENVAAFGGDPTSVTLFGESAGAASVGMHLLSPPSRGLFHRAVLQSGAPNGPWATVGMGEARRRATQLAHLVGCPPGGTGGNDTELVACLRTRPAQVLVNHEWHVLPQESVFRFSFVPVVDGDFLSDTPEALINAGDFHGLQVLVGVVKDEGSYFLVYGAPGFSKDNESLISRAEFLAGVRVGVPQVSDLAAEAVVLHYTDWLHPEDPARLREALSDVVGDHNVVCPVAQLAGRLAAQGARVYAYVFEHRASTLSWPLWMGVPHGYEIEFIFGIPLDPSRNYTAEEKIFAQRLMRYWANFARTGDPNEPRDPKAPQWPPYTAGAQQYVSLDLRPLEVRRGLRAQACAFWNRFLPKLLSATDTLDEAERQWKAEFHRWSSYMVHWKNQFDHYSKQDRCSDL

Caco-2 cells = assay: Caco-2 permeability; format: in vitro ADME
Experimental: (§1) The penetration of PXS-6302 across a monolayer of cells was tested using Caco-2 or MDCKII cells transfected with P-glycoprotein (Pgp).

Caco-2 permeability = format: in vitro ADME; settings: human, Caco-2
Experimental: as §1

[6] = molecular target: Serotonin (5-Hydroxytryptamine) 5-HT2A (Homo sapiens, UniProt P28223); assay: Eurofins panel 271650; format: binding
Chain of Serotonin (5-Hydroxytryptamine) 5-HT2A (P28223 whole entry): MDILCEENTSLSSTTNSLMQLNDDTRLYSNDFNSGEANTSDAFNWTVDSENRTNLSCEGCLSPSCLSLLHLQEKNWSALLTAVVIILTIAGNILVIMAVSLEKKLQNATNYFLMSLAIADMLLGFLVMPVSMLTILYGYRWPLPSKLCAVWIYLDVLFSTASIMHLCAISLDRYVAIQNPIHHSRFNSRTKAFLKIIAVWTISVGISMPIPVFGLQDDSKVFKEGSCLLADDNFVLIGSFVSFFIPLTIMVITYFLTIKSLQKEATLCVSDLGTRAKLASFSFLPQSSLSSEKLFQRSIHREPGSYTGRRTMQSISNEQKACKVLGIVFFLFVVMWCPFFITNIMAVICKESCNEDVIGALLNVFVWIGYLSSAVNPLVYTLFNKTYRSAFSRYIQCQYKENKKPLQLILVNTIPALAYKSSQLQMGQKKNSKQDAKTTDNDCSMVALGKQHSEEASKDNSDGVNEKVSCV

Cyclooxygenase COX-2 = Cyclooxygenase COX-2 (Homo sapiens, UniProt P35354); assay: Eurofins panel 118010; format: biochemical
Chain of Cyclooxygenase COX-2 (P35354 18-604): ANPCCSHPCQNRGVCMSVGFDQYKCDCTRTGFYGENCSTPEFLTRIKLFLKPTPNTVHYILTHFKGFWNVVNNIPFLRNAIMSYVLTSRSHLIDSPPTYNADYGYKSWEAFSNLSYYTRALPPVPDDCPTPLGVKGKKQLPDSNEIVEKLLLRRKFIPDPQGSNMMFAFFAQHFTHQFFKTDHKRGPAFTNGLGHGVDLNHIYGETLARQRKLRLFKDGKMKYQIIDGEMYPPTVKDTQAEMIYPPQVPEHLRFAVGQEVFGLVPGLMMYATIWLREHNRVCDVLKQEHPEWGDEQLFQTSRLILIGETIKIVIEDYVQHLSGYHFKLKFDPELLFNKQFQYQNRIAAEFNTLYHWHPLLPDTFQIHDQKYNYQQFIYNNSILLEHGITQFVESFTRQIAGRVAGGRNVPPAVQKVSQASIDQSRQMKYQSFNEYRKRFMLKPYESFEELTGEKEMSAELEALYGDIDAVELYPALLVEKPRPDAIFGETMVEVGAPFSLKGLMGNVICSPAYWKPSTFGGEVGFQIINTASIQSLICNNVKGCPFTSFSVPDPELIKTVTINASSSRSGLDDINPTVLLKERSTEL

[7] = test system: lysyl oxidase activity in the skin; assay: Rat pharmacokinetic-pharmacodynamic model, skin lysyl oxidase activity; format: in vivo; settings: for skin LOX activity S/N: individual animals; for inhibition of the specific lysyl oxidase signal: after 24 h
Experimental: PXS-6302 was formulated as an oil in water cream of different concentrations (0, 0.3, 1, 10%) and applied to a shaved area on the back of a rat (500 mg cream applied to 16 cm^2). After 24 h animals were sacrificed, the concentration of PXS-6302 in the skin was measured and the lysyl oxidase activity determined.
Fig. 5 Pharmacokinetic-pharmacodynamic measurement of target engagement in rat skin in vivo. […] Activity was measured 24 h after last topical application. Noise in these assays was determined by measuring background fluorescent changes in the presence of a high (>300 μM) concentration of BAPN to block all lysyl oxidase activity in the presence of other amine oxidase inhibitors (n = 3 per group). The signal (activity in the absence of BAPN) over noise (signal of the same extract in the presence of BAPN). Statistical analysis was performed with one-way ANOVA with Tukey’s method for multiple comparisons. *p < 0.05, **p < 0.01, ***p < 0.001 and ****p < 0.0001. Source data are provided as a Source Data file. […]
PXS-6302 was formulated as an oil in water cream of different concentrations (0, 0.3, 1, 10%) and applied to a shaved area on the back of an adult rat (500 mg cream applied to 16 cm^2 skin surface area). After 24 h animals were euthanased. For the detection of lysyl oxidase activity in the skin, epidermal and dermal layers of the skin were dissected, pre-cooled with liquid nitrogen and pulverized. Samples were washed by homogenization with ice-cold wash buffer (0.15 M NaCl, 50 mM sodium borate, pH 8.0 with 0.25 mM PMSF and 1 µL/mL bovine aprotinin as protease inhibitors) at 100 µL/mg, centrifuged at 10,000 × g for 10 min at 4 °C and supernatant discarded. After the final washing step, the pellet was resuspended in extraction buffer (6 M urea, 50 mM sodium borate, pH 8.2 with 0.25 mM PMSF and 1 µL/mL aprotinin as protease inhibitors) with ratio of buffer volume to tissue weight at 4:1. After a 3 h incubation at 4 °C, the mixture was diluted 1:2 with assay buffer containing 50 mM sodium borate (pH 8.2), centrifuged at 20,000 × g for 20 min at 4 °C. The collected supernatant was spiked with pargyline hydrochloride and mofegiline hydrochloride at final concentrations of 0.5 mM and 1 µM, respectively, to inhibit amine oxidases. Lysyl oxidase activity was measured as previously described. The concentration of PXS-6302 in the skin was also measured in the same samples using LCMSMS as described for Franz cell diffusion assay.

Chain of Neuropeptide Y Y1 (P25929 whole entry): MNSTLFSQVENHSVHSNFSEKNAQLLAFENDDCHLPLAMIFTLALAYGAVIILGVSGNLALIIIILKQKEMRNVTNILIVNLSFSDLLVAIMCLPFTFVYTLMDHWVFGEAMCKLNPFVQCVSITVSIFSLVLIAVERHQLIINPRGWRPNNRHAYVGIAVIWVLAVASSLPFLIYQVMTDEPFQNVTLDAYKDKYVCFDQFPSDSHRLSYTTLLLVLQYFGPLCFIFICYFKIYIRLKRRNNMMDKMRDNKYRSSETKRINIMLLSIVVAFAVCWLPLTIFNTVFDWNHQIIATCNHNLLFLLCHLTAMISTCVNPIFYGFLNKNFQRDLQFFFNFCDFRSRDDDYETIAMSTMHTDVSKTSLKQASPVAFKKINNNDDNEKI

For `NC/C=C(\F)CS(=O)(=O)c1ccccc1` [PXS-4787], the inhibition at 10 µM (Neuropeptide Y Y1) was 0%, the “% Inh.” value (Purinergic P2X) was 8% and the inhibition at 10 µM (Sigma σ1) was -10%. For the same molecule, the inhibition at 10 µM [1] was -3%, the “COL1A1 or LOX RNA levels” value ([2]; 0, 1, 10 µM, 48 h) was “No change” and the “qPCR COLIAI” value ([2]; 1μM) was 0.9946 and 1.0482 and 1.0167. The qPCRLOX ([2]; 1μM) was 1.068 and 1.006 and 0.9855, the “qPCR COLIAI” value ([2]; 10 µM) was 0.9655 and 0.9268 and 1.013 and the qPCRLOX ([2]; 10 µM) was 0.9777 and 0.8786 and 0.9515. The “% Inh.” value (Purinergic P2Y) was 2%, the “stability in cream formulations” value [3] was “some unwanted degradation occurred” and the “collagen I production (soluble procollagen I)” value [4] was “significant and sustained reduction”. For the same molecule, the “% Inh.” value (Rolipram) was 17%.
For `NC/C=C(\F)C(F)(F)S(=O)(=O)c1ccccc1` [PXS-6302], the inhibition at 30 µM (Monoamine Oxidase MAO-A) was 10%, the “% Inh.” value (Potassium Channel [KA]) was 2% and the inhibition at 30 µM [5] was 2%. The “CaCo2 permeability (class in words)” value (Caco-2 cells) was “High and high permeability”, the efflux ratio (Caco-2 permeability; read-out: CaCo2 efflux ratio) was 0.8 and the Papp (Caco-2 permeability; read-out: CaCo2 permeability Papp) was 34 ×10⁻⁶ cm/s. The inhibition at 30 µM [6] was 25%, the inhibition at 30 µM (Cyclooxygenase COX-2) was 21% and the “lysyl oxidase activity after repeat dosing” value ([7]; 0.5, 1, 3% cream once daily 5 days) was “strongly reduced”. The “lysyl oxidase activity, % of pre-drug activity” value ([7]; 1% cream, 48 h after the last dose) was 26%, the “skin LOX activity S/N” value ([7]; repeat application 0.5% 400mg) was 1.603 and 1.3949 and 1.286 and 1.15 and the “skin LOX activity S/N” value ([7]; repeat application 1% 400mg) was 1.251 and 1.262 (2×) and 1.26. For the same molecule, the “skin LOX activity S/N” value ([7]; repeat application 3% 400mg) was 1.108 and 1.192 and 1.079 and 1.121, the “skin LOX activity S/N” value ([7]; single application 0.3% 500mg) was 1.245 and 1.84 and 2.264 and the “skin LOX activity S/N” value ([7]; single application 1% 500mg) was 1.893 and 1.116 and 1.337. The “skin LOX activity S/N” value ([7]; single application 10% 500mg) was 1.274 and 1.089 and 1.033, the “inhibition of the specific lysyl oxidase signal” value ([7]; single dose 1% cream) was 67% and the “inhibition of the specific lysyl oxidase signal” value ([7]; single dose 10% cream) was 98%.
